From patent US11001600B2, “Disubstituted compounds for treatment of medical disorders” (Achillion Pharmaceuticals, Inc., priority 2015, dated 2021) come the findings set out here.

A value given as a limit tells only on which side of the number the result lay.

The target of one assay is Human Factor D (Homo sapiens (Human), UniProt P00746). Put plainly: Human Factor D assay. In kind it is biochemical.
Sequence of Human Factor D (P00746 26-253): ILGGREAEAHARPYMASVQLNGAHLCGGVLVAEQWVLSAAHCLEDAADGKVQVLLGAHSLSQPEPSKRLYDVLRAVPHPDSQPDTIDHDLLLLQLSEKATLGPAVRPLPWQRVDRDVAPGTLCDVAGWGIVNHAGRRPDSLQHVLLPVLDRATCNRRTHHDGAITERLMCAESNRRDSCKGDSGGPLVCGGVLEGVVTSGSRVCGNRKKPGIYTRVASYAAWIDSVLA
Conditions: not given
As for the experimental part:
Example 8. Human Factor D Assay
Human Factor D (purified from human serum, Complement Technology, Inc.) at 80 nM final concentration is incubated with test compound at various concentrations for 5 minutes at room temperature in 50 mM Tris, 1M NaCl, pH 7.5. A synthetic substrate Z-L-Lys-SBzl and DTNB (Ellman's reagent) are added to final concentrations of 100 μM each. Absorbance at 405 nm (A405) is recorded at 30 second intervals for 30 minutes using a microplate spectrophotometer. IC50 values are calculated by nonlinear regression of complement Factor D reaction rates as a function of test compound concentration.
As for `CC(C)(C)OC(=O)N=S(C)(=O)c1cccc(-c2cccc(NC(=O)[C@@H]3C[C@@H](F)CN3C(=O)Cn3nc(C(N)=O)c4ccccc43)c2F)c1` (stereo partly drawn) [Compound 49, tert-butyl ((3′-((2S,4R)-1-(2-(3-carbamoyl-1H-indazol-1-yl)acetyl)-4-fluoropyrrolidine-2-carboxamido)-2′-fluoro-[1,1′-biphenyl]-3-yl)(methyl)(oxo)-16-sulfaneylidene)-14-azanecarboxylate], the IC50 is 1 to 10 µM.

Still in this assay, the particulars now being: Factor D 80 nM, substrate Z-L-Lys-SBzl; Table 1; read-out: IC50.
On to `CC(=O)c1cn(CC(=O)N2C[C@H](F)C[C@H]2C(=O)Nc2cccc(-c3ccccc3Cl)c2F)c2cc(OCP(=O)(O)O)c(-c3cnc(C)nc3)cc12` [Compound 9, (3-acetyl-1-(2-((2S,4R)-2-(2′-chloro-2-fluorobiphenyl-3-ylcarbamoyl)-4-fluoropyrrolidin-1-yl)-2-oxoethyl)-5-(2-methylpyrimidin-5-yl)-1H-indol-6-yloxy)methylphos-phonic acid], for which the IC50 is less than 1 µM.
Same read-out and setting: as for `CCOP(=O)(COc1cc2c(cc1-c1cnc(C)nc1)c(C(C)=O)cn2CC(=O)N1C[C@H](F)C[C@H]1C(=O)Nc1cccc(-c2ccccc2Cl)c1F)OCC` [Compound 8, diethyl (3-acetyl-1-(2-((2S,4R)-2-(2′-chloro-2-fluorobiphenyl-3-ylcarbamoyl)-4-fluoropyrrolidin-1-yl)-2-oxoethyl)-5-(2-methylpyrimidin-5-yl)-1H-indol-6-yloxy)methylphosphonate], the figure is less than 1 µM.
On the same count and under the same terms, as for `CC(=O)c1cn(CC(=O)N2C[C@H](F)C[C@H]2C(=O)Nc2cccc(Br)n2)c2cc(OCP(=O)(O)O)c(-c3cnc(C)nc3)cc12` [Compound 13, (3-acetyl-1-(2-((2S,4R)-2-(6-bromopyridin-2-ylcarbamoyl)-4-fluoropyrrolidin-1-yl)-2-oxoethyl)-5-(2-methylpyrimidin-5-yl)-1H-indol-6-yloxy)methylphos-phonic acid], the figure is less than 1 µM.

The assay is the same for the next values; noted with them: Factor D 80 nM, substrate Z-L-Lys-SBzl; Table 2 (headed TABLE 1); read-out: IC50.
On to `CC(=O)c1nn(CC(=O)N2C[C@H](F)C[C@H]2C(=O)Nc2cccc(Br)n2)c2cc(OCCO)c(-c3cnc(C)nc3)cc12` [Compound 41, (2S,4R)-1-(2-(3-acetyl-6-(2-hydroxyethoxy)-5-(2-methylpyrimidin-5-yl)-1H-indazol-1-yl)acetyl)-N-(6-bromopyridin-2-yl)-4-fluoropyrrolidine-2-carboxamide], for which the IC50 is less than 1 µM.
For the compound `CC(=O)c1nn(CC(=O)N2C[C@H](F)C[C@H]2C(=O)Nc2cccc(Br)n2)c2ccc(-c3cnc(S(C)(=N)=O)nc3)cc12` (stereo partly drawn) [Compound 46, (2S,4R)-1-(2-(3-acetyl-5-(2-(S-methylsulfonimidoyl)pyrimidin-5-yl)-1H-indazol-1-yl)acetyl)-N-(6-bromopyridin-2-yl)-4-fluoropyrrolidine-2-carboxamide], the IC50 was less than 1 µM.
For `CC(=O)c1nn(CC(=O)N2C[C@H](F)C[C@H]2C(=O)Nc2cccc(Br)n2)c2cc(OCCOCc3ccccc3)c(-c3cnc(C)nc3)cc12` [Compound 33, (2S,4R)-1-(2-(3-acetyl-6-(2-(benzyloxy)ethoxy)-5-(2-methylpyrimidin-5-yl)-1H-indazol-1-yl)acetyl)-N-(6-bromopyridin-2-yl)-4-fluoropyrrolidine-2-carboxamide], the IC50 is less than 1 µM.
On the same count and under the same terms, as for `CC(=O)c1cn(CC(=O)N2C[C@H](F)C[C@H]2C(=O)Nc2cccc(Br)n2)c2ccc(S(C)(=O)=NC(=O)OC(C)(C)C)cc12` (stereo partly drawn) [Compound 47, tert-butyl ((3-acetyl-1-(2-((2S,4R)-2-((6-bromopyridin-2-yl)carbamoyl)-4-fluoropyrrolidin-1-yl)-2-oxoethyl)-1H-indol-5-yl)(methyl)(oxo)-16-sulfaneylidene)-14-azanecarboxylate], the figure is less than 1 µM; as for `COCOCCOc1cc2c(cc1-c1cnc(C)nc1)c(C(C)=O)nn2CC(=O)N1C[C@H](F)C[C@H]1C(=O)Nc1cccc(Br)n1` [Compound 39, (2S,4R)-1-(2-(3-acetyl-6-(2-(methoxymethoxy)ethoxy)-5-(2-methylpyrimidin-5-yl)-1H-indazol-1-yl)acetyl)-N-(6-bromopyridin-2-yl)-4-fluoropyrrolidine-2-carboxamide], less than 1 µM.
The same measure, in the same setting: as for `CC(=O)c1cn(CC(=O)N2C[C@H](F)C[C@H]2C(=O)Nc2cccc(Br)n2)c2ccc(S(C)(=N)=O)cc12` (stereo partly drawn) [Compound 48, (2S,4R)-1-(2-(3-acetyl-5-(S-methylsulfonimidoyl)-1H-indol-1-yl)acetyl)-N-(6-bromopyridin-2-yl)-4-fluoropyrrolidine-2-carboxamide], the figure is less than 1 µM.
As to `CC(=O)c1nn(CC(=O)N2C[C@H](F)C[C@H]2C(=O)Nc2cccc(Br)n2)c2cc(OCC(=O)N(C)C)c(-c3cnc(C)nc3)cc12` [Compound 26, (2S,4R)-1-(2-(3-acetyl-6-(2-(dimethylamino)-2-oxoethoxy)-5-(2-methylpyrimidin-5-yl)-1H-indazol-1-yl)acetyl)-N-(6-bromopyridin-2-yl)-4-fluoropyrrolidine-2-carboxamide], the IC50 was less than 1 µM.
With `CC(=O)c1nn(CC(=O)N2C[C@H](F)C[C@H]2C(=O)Nc2cccc(Br)n2)c2cc(OCCN(C)C)c(-c3cnc(C)nc3)cc12` [Compound 44, (2S,4R)-1-(2-(3-acetyl-6-(2-(dimethylamino)ethoxy)-5-(2-methylpyrimidin-5-yl)-1H-indazol-1-yl)acetyl)-N-(6-bromopyridin-2-yl)-4-fluoropyrrolidine-2-carboxamide], the IC50 was less than 1 µM.

Usually IC50 stands for the concentration needed to halve the response being measured.
